Experimental data: patent publication US20250127801A1, “BRIDGED TRICYCLIC CARBAMOYLPYRIDONE COMPOUNDS AND USES THEREOF” (priority 2023, published 2025)
Converted amounts (≈) assume the structure as drawn. Like-named read-outs stand apart in the source and are kept apart here.

What was measured:
in vitro = conditions: human; for CC50 at 5 days: uninfected MT-4 cells
physchem = conditions: 23 °C, thermodynamic from solid; for solubility thermodynamic: fassif; for solubility thermodynamic at 24 h: FaSSIF
HIV-1 (IIIB) = experiment: microbe, parasite or virus in culture; assay type: cell-based
[1] = Human immunodeficiency virus 1, IIIB, MT4, 120 h, read-out: MT4 EC50 (nM)
[2] = Human immunodeficiency virus 1, MT4, 120 h, HIV-1 (IIIB) replication in MT-4 cells, 5 days incubation, Cell Titer Glo, read-out: MT4 EC50

Row | solubility thermodynamic at 24 h (physchem) | EC50 (HIV-1 (IIIB); [2]) | SMILES | CC50 (in vitro) | solubility thermodynamic (physchem) | EC50 (HIV-1 (IIIB); [1]) | CC50 at 5 days (in vitro)
1 |  |  | CC1=NO[C@@]2(CC[C@H](C)N3C[C@H]2n2cc(C(=O)NCc4ccc(F)cc4F)c(=O)c(OC(=O)N(C)c4ncc(C(=O)O)cc4CN(CC(=O)O)C(=O)OCOP(=O)(O)O)c2C3=O)C1 [Compound 8, 5-(((carboxymethyl)(((phosphonooxy)methoxy)carbonyl)amino)methyl)-6-(((((3′S,5S,7′R)-10′-((2,4-difluorobenzyl)carbamoyl)-3,3′-dimethyl-1′,11′-dioxo-1′,4′,5′,11′-tetrahydro-3′H,4H,7′H-spiro[isoxazole-5,6′-[2,7]methanopyrido[1,2-a][1,4]diazonin]-12′-yl)oxy)carbonyl)(methyl)amino)nicotinic acid] | 10.4 µM | 4800 µg/mL (≈ 5.3 mM) | 0.982 nM | 
2 | 3240 µg/mL (≈ 4.3 mM) | 1.4 nM | CNCC(=O)OCc1cccnc1N(C)C(=O)OCOc1c2n(cc(C(=O)NCc3ccc(F)cc3F)c1=O)[C@@H]1CN(C2=O)[C@@H](C)CC[C@]12CC(C)=NO2 [Compound 9, (2-((((((3′S,5S,7′R)-10′-((2,4-difluorobenzyl)carbamoyl)-3,3′-dimethyl-1′11′-dioxo-1′,4′,5′,11′-tetrahydro-3′H,4H,7′H-spiro[isoxazole-5,6′-[2,7]methanopyrido[1,2-a][1,4]diazonin]-12′-yl)oxy)methoxy)carbonyl)(methyl)amino)pyridin-3-yl)methyl methylglycinate] |  |  |  | 10.5 µM
3 | 3320 µg/mL (≈ 4.11 mM) | 3.19 nM | CC1=NO[C@@]2(CC[C@H](C)N3C[C@H]2n2cc(C(=O)NCc4ccc(F)cc4F)c(=O)c(OCOC(=O)N(C)c4ncccc4COC(=O)[C@@H](N)CCCCN)c2C3=O)C1 [Compound 10, (2-((((((3′S,5S,7′R)-10′-((2,4-difluorobenzyl)carbamoyl)-3,3′-dimethyl-1′,11′-dioxo-1′,4′,5′,11′-tetrahydro-3′H,4H,7′H-spiro[isoxazole-5,6′-[2,7]methanopyrido[1,2-a][1,4]diazonin]-12′-yl)oxy)methoxy)carbonyl)(methyl)amino)pyridin-3-yl)methyl L-lysinate] |  |  |  | 10.2 µM
4 | 2 µg/mL (≈ 0.00266 mM) | 1.9 nM | CC1=NO[C@@]2(CC[C@H](C)N3C[C@H]2n2cc(C(=O)NCc4ccc(F)cc4F)c(=O)c(OCOC(=O)N(C)c4ncccc4COC(=O)[C@H](C)N)c2C3=O)C1 [Compound 11, (2-((((((3′S,5S,7′R)-10′-((2,4-difluorobenzyl)carbamoyl)-3,3′-dimethyl-1′,11′-dioxo-1′,4′,5′,11′-tetrahydro-3′H,4H,7′H-spiro[isoxazole-5,6′-[2,7]methanopyrido[1,2-a][1,4]diazonin]-12′-yl)oxy)methoxy)carbonyl)(methyl)amino)pyridin-3-yl)methyl L-alaninate] |  |  |  | 14.5 µM
5 | 2700 µg/mL (≈ 3.47 mM) | 4.33 nM | CC1=NO[C@@]2(CC[C@H](C)N3C[C@H]2n2cc(C(=O)NCc4ccc(F)cc4F)c(=O)c(OCOC(=O)N(C)c4ncccc4COC(=O)[C@@H](N)C(C)C)c2C3=O)C1 [Compound 12, (2-((((((3′S,5S,7′R)-10′-((2,4-difluorobenzyl)carbamoyl)-3,3′-dimethyl-1′,11′-dioxo-1′,4′,5′,11′-tetrahydro-3′H,4H,7′H-spiro[isoxazole-5,6′-[2,7]methanopyrido[1,2-a][1,4]diazonin]-12′-yl)oxy)methoxy)carbonyl)(methyl)amino)pyridin-3-yl)methyl L-valinate] |  |  |  | 14.6 µM
6 | 1980 µg/mL (≈ 3.02 mM) | 0.762 nM | CC1=NO[C@@]2(CC[C@H](C)N3C[C@H]2n2cc(C(=O)NCc4ccc(F)cc4F)c(=O)c(OCOC(=O)N(C)C[C@@H]4CCCN4)c2C3=O)C1 [Compound 13, (((3′S,5S,7′R)-10′-((2,4-difluorobenzyl)carbamoyl)-3,3′-dimethyl-1′,11′-dioxo-1′,4′,5′,11′-tetrahydro-3′H,4H,7′H-spiro[isoxazole-5,6′-[2,7]methanopyrido[1,2-a][1,4]diazonin]-12′-yl)oxy)methyl methyl(((S)-pyrrolidin-2-yl)methyl)carbamate] |  |  |  | 10.8 µM
7 | 5090 µg/mL (≈ 6.28 mM) | 1.25 nM | CC1=NO[C@@]2(CC[C@H](C)N3C[C@H]2n2cc(C(=O)NCc4ccc(F)cc4F)c(=O)c(OCOC(=O)N(C)C[C@@H]4CCCN4C(=O)OCOP(=O)(O)O)c2C3=O)C1 [Compound 14, (phosphonooxy)methyl (2S)-2-(((((((3′S,5S,7′R)-10′-((2,4-difluorobenzyl)carbamoyl)-3,3′-dimethyl-1′,11′-dioxo-1′,4′,5′,11′-tetrahydro-3′H,4H,7′H-spiro[isoxazole-5,6′-[2,7]methanopyrido[1,2-a][1,4]diazonin]-12′-yl)oxy)methoxy)carbonyl)(methyl)amino)methyl)pyrrolidine-1-carboxylate] |  |  |  | 16.8 µM
8 | 1480 µg/mL (≈ 2.19 mM) | 1.61 nM | COC1=NO[C@@]2(CC[C@H](C)N3C[C@H]2n2cc(C(=O)NCc4ccc(F)cc4F)c(=O)c(OCOC(=O)N(C)C[C@@H]4CCCN4)c2C3=O)C1 [Compound 15, (((3′S,5S,7′R)-10′-((2,4-difluorobenzyl)carbamoyl)-3-methoxy-3′-methyl-1′,11′-dioxo-1′,4′,5′,11′-tetrahydro-3′H,4H,7′H-spiro[isoxazole-5,6′-[2,7]methanopyrido[1,2-a][1,4]diazonin]-12′-yl)oxy)methyl methyl(((S)-pyrrolidin-2-yl)methyl)carbamate] |  |  |  | 14.7 µM
9 | 2540 µg/mL (≈ 3.45 mM) | 0.93 nM | CC1=NO[C@@]2(CC[C@H](C)N3C[C@H]2n2cc(C(=O)NCc4ccc(F)cc4F)c(=O)c(OC(=O)[C@@H]4CCCN4C(=O)OCOP(=O)(O)O)c2C3=O)C1 [Compound 17, 2-((3′S,5S,7′R)-10′-((2,4-difluorobenzyl)carbamoyl)-3,3′-dimethyl-1′,11′-dioxo-1′,4′,5′,11′-tetrahydro-3′H,4H,7′H-spiro[isoxazole-5,6′-[2,7]methanopyrido[1,2-a][1,4]diazonin]-12′-yl) 1-((phosphonooxy)methyl) (2S)-pyrrolidine-1,2-dicarboxylate] |  |  |  | 13 µM
10 |  |  | CC1=NO[C@@]2(CC[C@H](C)N3C[C@H]2n2cc(C(=O)NCc4ccc(F)cc4F)c(=O)c(OCOC(=O)OCc4ccc(OP(=O)(O)O)cc4)c2C3=O)C1 [Compound 19, (((3′S,5S,7′R)-10′-((2,4-difluorobenzyl)carbamoyl)-3,3′-dimethyl-1′,11′-dioxo-1′,4′,5′,11′-tetrahydro-3′H,4H,7′H-spiro[isoxazole-5,6′-[2,7]methanopyrido[1,2-a][1,4]diazonin]-12′-yl)oxy)methyl (4-(phosphonooxy)benzyl) carbonate] | 10.9 µM | 390 µg/mL (≈ 0.522 mM) | 0.71 nM | 
11 |  |  | CC1=NO[C@@]2(CC[C@H](C)N3C[C@H]2n2cc(C(=O)NCc4ccc(F)cc4F)c(=O)c(OCOC(=O)CC(C)(C)c4c(CC(=O)O)cc(C)cc4OP(=O)(O)O)c2C3=O)C1 [Compound 20, 2-(2-(4-((((3′S,5S,7′R)-10′-((2,4-difluorobenzyl)carbamoyl)-3,3′-dimethyl-1′,11′-dioxo-1′,4′,5′,11′-tetrahydro-3′H,4H,7′H-spiro[isoxazole-5,6′-[2,7]methanopyrido[1,2-a][1,4]diazonin]-12′-yl)oxy)methoxy)-2-methyl-4-oxobutan-2-yl)-5-methyl-3-(phosphonooxy)phenyl)acetic acid] | 12.5 µM | 4410 µg/mL (≈ 5.22 mM) | 1.76 nM | 
12 | 90 µg/mL (≈ 0.15 mM) | 1.18 nM | CC1=NO[C@@]2(CC[C@H](C)N3C[C@H]2n2cc(C(=O)NCc4ccc(F)cc4F)c(=O)c(OCc4oc(=O)oc4C)c2C3=O)C1 [Compound 22, (3′S,5S,7′R)—N-(2,4-difluorobenzyl)-3,3′-dimethyl-12′-((5-methyl-2-oxo-1,3-dioxol-4-yl)methoxy)-1′,11′-dioxo-1′,4′,5′,11′-tetrahydro-3′H,4H,7′H-spiro[isoxazole-5,6′-[2,7]methanopyrido[1,2-a][1,4]diazonine]-10′-carboxamide] |  |  |  | 12.4 µM
13 |  |  | CC1=NO[C@@]2(CC[C@H](C)N3C[C@H]2n2cc(C(=O)NCc4ccc(F)cc4F)c(=O)c(OCOC(=O)OCCC(C)(C)c4c(CC(=O)O)cc(C)cc4OP(=O)(O)O)c2C3=O)C1 [Compound 23, 2-(2-(4-((((((3′S,5S,7′R)-10′-((2,4-difluorobenzyl)carbamoyl)-3,3′-dimethyl-1′,11′-dioxo-1′,4′,5′,11′-tetrahydro-3′H,4H,7′H-spiro[isoxazole-5,6′-[2,7]methanopyrido[1,2-a][1,4]diazonin]-12′-yl)oxy)methoxy)carbonyl)oxy)-2-methylbutan-2-yl)-5-methyl-3-(phosphonooxy)phenyl)acetic acid] | 14.6 µM | 4750 µg/mL (≈ 5.43 mM) | 2.11 nM | 
14 |  |  | CC1=NO[C@@]2(CC[C@H](C)N3C[C@H]2n2cc(C(=O)NCc4ccc(F)cc4F)c(=O)c(OCOC(=O)OCCC(C)(C)c4c(CC(=O)N[C@@H](CC(=O)O)C(=O)O)cc(C)cc4OP(=O)(O)O)c2C3=O)C1 [Compound 24, (2-(2-(4-((((((3′S,5S,7′R)-10′-((2,4-difluorobenzyl)carbamoyl)-3,3′-dimethyl-1′,11′-dioxo-1′,4′,5′,11′-tetrahydro-3′H,4H,7′H-spiro[isoxazole-5,6′-[2,7]methanopyrido[1,2-a][1,4]diazonin]-12′-yl)oxy)methoxy)carbonyl)oxy)-2-methylbutan-2-yl)-5-methyl-3-(phosphonooxy)phenyl)acetyl)-L-aspartic acid] | 12.3 µM | 4900 µg/mL (≈ 4.95 mM) | 1.98 nM | 
